Source: patent publication US12054485B2, “Substituted imidazoquinolines” (BIONTECH SE, priority 2017, dated 2024)

Tested on: Human PBMCs
Experiment: IFN-α induction by TLR agonists in human PBMCs (Luminex)
Assay type: cell-based
Settings: 24 h incubation, maximum of bell-shaped curve over 0.0003-1 μM, Table 1
Experimental: 1) IFN-α Induction Assay—IFN-α induction by TLR Agonists in Human PBMCs
Abbreviations: BSA=bovine serum albumine; PBS=phosphate buffer pH 7.4; PE=phycoerythrin; EDC=1-ethyl-3-(3-dimethylaminopropyl)carbodiimide hydrochloride.
Materials and Devices: Bio Plex 200 Luminex device, and BioPlex Manager software; MultiScreen Filter Plates (Millipore, MABVN1250); low binding reaction vials 1.5 ml (Sarstedt, 72.706.600); Activation Buffer: 0.1M Na-dihydrogen phosphate, 0.1M Di-Na hydrogen phosphate pH 6.2; Sulfo-NHS (N-hydroxysulfosuccinimide) solution: 50 mg/ml in water (freshly prepared); EDC solution: 50 mg/ml in water (freshly prepared); Coupling Buffer: PBS; Washing Buffer: PBS+0.05% Tween20; Blocking Buffer: PBS+10 mg/ml BSA+0.05% sodium azide; Assay Buffer: PBS+10 mg/ml BSA;
Other materials and devices (pipets, reaction vessels, shaker, etc.) were standard lab equipment; water was MilliQ grade quality, buffers were sterile filtered before use.
(Pre-)Incubation of Cells:
In each well of a 96-well U-bottom plate 200,000 PBMCs were pre-incubated in medium (RPMI1640-Gibco #61870-044+10% FBS+1% L-glutamine) for 5 hours at 37° C. and 5% CO2 before the compounds of the present invention or controls were added, respectively. Upon addition of compounds of the present invention or controls, the cells are incubated for another 24 h at 37° C. and 5% CO2.
Luminex assay, Step 1: Coupling of antibody to beads: • transfer a suspension (beads are stored in buffer as provided by manufacturer) of about 5 million MicroPlex Microspheres (=beads) into a low binding reaction vial • centrifuge bead suspension for 1 min at 10,000 g, discard supernatant and resuspend pellet in 160 μl Activation Buffer, repeat once • add 20 μl Sulfo-NHS solution and 20 μl EDC solution, vortex • incubate for 20 min in the absence of light • centrifuge bead suspension for 1 min at 10,000 g, discard supernatant and resuspend pellet in 500 μl Coupling Buffer, repeat once • add capture antibody (CaptureAK eBioscience #BMS160, 5 μg per 1 Mio beads) • incubate 2 h at RT in the absence of light while swaying • centrifuge bead suspension for 1 min at 10,000 g, discard supernatant and resuspend pellet in 500 μl Washing Buffer, repeat once • centrifuge bead suspension for 1 min at I0,000 g, discard supernatant and resuspend pellet in 100 μl Blocking Buffer
Luminex assay, Step 2: Measurement • add 100 μlAssay Buffer into each filter plate well (seal any unused wells with adhesive tape), then remove buffer • add about 2,000 beads per well per analyte (per analyte, a different bead type with distinct fluorescence color is used), suspended in […] of Assay Buffer • remove buffer and wash twice with 100 μl Washing Buffer per well • per well, add 50 μl sample solution from the (pre-)incubation step (cell supernatant), or Standard (IFN-α standard eBioscience #BMS216MST—concentration gradient, highest standard concentration 2500 pg/ml) or Assay Buffer (as blanks) • shake plate • incubate plate for 2 h at RT in the absence of light, while swaying the plate • wash three times with 100 μl Washing Buffer per well • add 25 μl antibody detection mix (DetectionAK eBioscience #BMS1016BT diluted 1:1000) in Assay Buffer per well, then vortex plate • incubate plate for 1 h at RT in the absence of light, while swaying the plate • wash three times with 100 μl Washing Buffer per well • add 50 μl Streptavidin/PE (diluted 1:200 in Assay Buffer) per well, then vortex plate • incubate plate for 10 min at RT in the absence of light, while swaying the plate • wash three times with 100 μl Washing Buffer per well • add 100 μl Assay Buffer per well, then vortex plate • start Luminex measurement according to manufacturer's instructions, measuring at least 50 beads per well per analyte
The compounds were tested at 8 different concentrations (1 μM, 0.3 μM, 0.1 μM, 0.03 μM, 0.01 μM 0.003 μM, 0.001 μM, 0.0003 μM) using a half-logarithmic dilution. […]

## CCc1nc2c(N)nc3ccccc3c2n1CCCCN(C(C)=O)C1CCOCC1 [Example 1, N-(4-(4-Amino-2-ethyl-1H-imidazo[4,5-c]quinolin-1-yl)butyl)-N-(tetrahydro-2H-pyran-4-yl)acetamide]
  Maximum IFN-α release: 1750 pg/mL
